Test results taken from patent publication US9605013B2, “Derivatives of hemin with antibacterial and antiviral activity” (OBSCHESTVO S OGRANICHENNOI OTVETSTVENNOSTIYU …, priority 2011, dated 2017).

What was measured:
Format in all cases: cell-based
[1] = test system: Staphylococcus aureus No. 3797 (MRSA); assay: Antibacterial specific activity, twofold dilutions, visual growth evaluation; conditions: St. aur No. 3797 MRSA; 36° C., 24 hours
Experimental: (§1) The specific activity of compounds also was determined against bacteria strains such as Staphylococcus aureus No. 25923 ATCC (American Type Culture Collection); Staphylococcus aureus No. 100 KC; Staphylococcus epidermidis No. 533; Enterococcus faecalis No. 559; Enterococcus faecium No. 569, Staphylococcus aureus No. 5 (MRSA), Staphylococcus aureus No. 3797 (MRSA). Staphylococcus aureus was cultured on the Trypticase Soy Agar (BBL) commercially available dry medium. Enterococcus faecalis was cultured on the Columbia Agar (BBL) commercially available dry medium. These media were sterilized by autoclaving at 121° C. for 15 min. Bacterial inoculum was constant and was 5×10^5 CFU/ml (10^5 CFU/0.2 ml). For water-soluble compounds, wells from 2nd through 8th were added with the solvent (water) in an amount of 15 μL per well, then the 1st well was added with 30 μL of the stock solution of the tested compound in […] with a concentration of […], and the concentration was adjusted to 0.007×10^3 M by serial twofold dilutions. A 10-μL portion was taken from every well, and 190 μL of the bacterial culture (10^5 CFU) was added per well. For DMSO-soluble compounds, wells from 2nd through 8th were added with the solvent (DMSO) in an amount of 10 μL per well, then the 1st well was added with 20 μL of the stock solution of the tested compound in […] with a concentration of […], and the concentration was adjusted to 0.039×10^3 M by serial twofold dilutions. A 2-μL portion was taken from each well, and 198 μL of the bacterial culture (10^5 CFU) was added per well.
(§2) The control comprised wells free of tested compounds (culture growth control). In addition, purity control of nutritional media and solvents was used. Plates were incubated in a thermostat at 36° C. for 24 hours.
(§3) Culture growth was evaluated visually by comparison of how microorganisms grew in the presence of tested compounds and in the absence of them. MIC was set equal to the last dilution of a tested agent which suppressed bacterial culture growth.

[2] = test system: Staphylococcus aureus No. 5 (MRSA); assay: as above; conditions: St. aur No. 5 MRSA; 36° C., 24 hours
Experimental: as §1, §2, §3

[3] = test system: Bacillus subtilis BKM B-501; assay: Antibacterial activity, serial dilutions in liquid MH medium; conditions: MH medium, 20 h, 37° C., 100% growth inhibition
Experimental: (§4) The antibacterial activity of the compounds was determined against strains of gram-positive bacteria such as Staphylococcus aureus 209P, Enterococcus faecalis BKM B-871, Micrococcus luteus BKM Ac-2230, Bacillus subtilis BKM B-501, and gram-negative bacteria such as Pseudomonas aeruginosa PAO1 and Escherichia coli KM MGU C-600. BKM strains were acquired from the All-Russia Collection of Microorganisms at the Institute for Biochemistry and Physiology of Microorganisms, Russian Academy of Sciences. Strain Staphylococcus aureus 209P was acquired from the Collection of Microorganisms at the Department of microbiology of the Faculty of Biology of Lomonosov Moscow State University, and Pseudomonas aeruginosa PAO1 was acquired from the Collection of Microorganisms at the Institute of Bioorganic Chemistry of the Russian Academy of Sciences.
(§5) The main parameters characterizing the antibacterial activity are the minimal inhibitory concentration (MIC) and minimal bactericidal concentration (MBC). […] MBC is the least concentration that causes the death of all cells.
(§6) MIC was quantified by inhibiting culture growth in a liquid medium with serial dilutions of compounds using a modified procedure [Amsterdam, D., 1966. “Susceptibility testing of antimicrobials in liquid media,” pp. 52-111. In Loman, V., ed. Antibiotics in laboratory medicine, 4th ed. Williams and Wilkins, Baltimore].
(§7) Bacteria were cultured and tested on an MH liquid medium (Mueller-Hinton medium: a dry extract of beef broth, 4 g/L; starch, 1.5 g/L; casein hydrolyzate, 17.5 g/L; Sigma-Fluka Catalog No. 70192) at 37° C., 100% humidity, and under stirring. Cultures (within 4 to 7 passages after thawing) in the exponential growth phase were used for tests.
(§8) All tested compounds absorb light at 595 nm, a wavelength used for evaluating bacterial culture growth. Therefore, a correction for absorption was applied in estimating the optical density of bacterial suspensions for each compound with account for its concentration in the well. Bacterial growth inhibition (GI) as percentage after 20 hours of incubating cells with compounds was derived from the optical density (A) measured in every well at a wavelength of 595 nm using the equation: GIi=[(Act−Ac0)−(Ait−Ai0)]×100/(Act−Ac0), (1) wherein the subscripts have the following meanings: i denotes the well number, c denotes a control well with bacteria whereto the tested compound is not inserted, 0 refers to the measurement taken immediately once the tested compound was inserted to the well, and t refers to the measurement taken 20 hours after the compound was inserted.
(§9) The protocol for the determination of experimental antibacterial activity of the tested compounds was as follows. A cryovial with the test strain culture in a medium with 7% DMSO stored in liquid nitrogen, was rapidly defrosted, and 1.5 mL of the fresh MH medium was inoculated with 100 μL of the cell suspension. Cells were grown for one day at 37° C. and stirred on an orbital shaker at 150 rpm. The morphologic features of the strain and the absence of contamination with foreign bacteria were verified by: (a) inoculation on an agarized (15 g/L agar) MH medium and observation of the shape and color of the grown colonies and (b) examination of characteristic morphologic features under a microscope (Mikmed-2, LOMO, Russia) equipped with a 40× objective lens. Further, the bacteria were cultured in 1 mL of the liquid MH medium at 37° C. under stirring. The cells were reseeded every day. Cell cultures were used in tests starting with 3rd reseeding and ending with 6th one.
(§10) For testing, 5 μL of a bacterial suspension in the stationary growth phase was transferred to 1 mL of a sterile MH medium and incubated until the exponential growth phase was attained (3 to 5 h, 37° C., stirring at 150 rpm). To estimate the microorganism concentration, the optical density (A) of the resulting bacterial culture was measured at a wavelength of 595 nm. […]

[4] = test system: Micrococcus luteus BKM Ac-2230; assay: as above
Experimental: as §4, §5, §6, §7, §8, §9, §10

[5] = test system: Enterococcus faecalis No. 559; assay: Antibacterial specific activity, twofold dilutions, visual growth evaluation; conditions: E. faecalis 559; 36° C., 24 hours
Experimental: as §1, §2, §3

[6] = test system: Staphylococcus aureus No. 25923 ATCC; assay: as above; conditions: S. aureus 25923; 36° C., 24 hours
Experimental: as §1, §2, §3

[7] = test system: Staphylococcus epidermidis No. 533; assay: as above; conditions: S. epidermis 533; 36° C., 24 hours
Experimental: as §1, §2, §3

[8] = test system: Vancomycin-resistant Enterococcus faecium 569; assay: as above; conditions: Vancomycin-resistant E. faecium 569; 36° C., 24 hours
Experimental: as §1, §2, §3

Escherichia coli 4300 = assay: as above; conditions: E. coli 4300; 36° C., 24 hours
Experimental: [Worded in the source for another organism; this organism is reported under the same test.] as §1, §2, §3

[9] = test system: Staphylococcus aureus No. 100 KC; assay: as above; conditions: S. aureus 100 KC; 36° C., 24 hours
Experimental: as §1, §2, §3

[10] = test system: Herpes Simplex Virus type 2 strain G (No. VR-734 ATCC); assay: Antiviral activity, virus cytopathogenic action in Vero cells; set-up: key: 0: CPA (cytopathogenic action) is not detected; 1: up to 25% virus-infected monolayer; from 25% to 50%; 3: from 50% to 75%; 4: from 75% to 100%; conditions: 48 hours
Experimental: (§11) […] used in the study were used Herpes Simplex Virus type 1 (the Collection of Microorganisms at the Scientific Research Institute of Virology, strain EC), Herpes Simplex Virus type 2 strain G (No. VR-734 ATCC), and human cytomegalovirus strain AD169 (No. VR-538 ATCC). Herpes Simplex viruses type 1 and type 2 were cultured in Vero cells. The cells were incubated in MEM Eagle growth medium (MEM, BioloT, St-Petersburg, 1.3.3) supplemented with 10% fetal bovine serum (BioloT, St-Petersburg, 1.3.12) in Sanyo MCO-15AC gas-flow thermostat (37° C., 5% CO2) (Tokyo, Japan). A seed dose was 2×10^5 cells/ml in the starting inoculum or 2×10^4 cells/well. Herpes Simplex viruses were cultured under the same conditions in the MEM medium without serum (maintenance medium). Starting viral titers were 10^7 TCID50/ml.
(§12) For DMSO-soluble preparations, stock solutions were prepared in a concentration of 10 mM in DMSO. For water-soluble preparations, a stock solution prepared had the same concentration in the MEM medium (Minimal Essential Medium) for cell cultures. To control cytotoxicity (see below), the stock solution was diluted in the medium to a concentration of 100 μM and ten-fold serial dilutions of the preparations were made in the MEM medium (for DMSO-soluble compounds—in the MEM medium comprising 3% DMSO). The following concentrations of the preparations were used in the study of […]: if toxicity was not found, the concentrations of 100 μM preparations were 100, 10 and 1 μM; if toxicity was detected, the concentrations of 100 μM preparations were 10, 1, and 0.1 μM. Acyclovir (10 μg/ml) was used for Herpes Simplex viruses of both types as a reference preparation to control the viral model validity.
(§13) To study antiviral activity, plate wells with a cell monolayer were added with the preparations in an amount of 0.1 ml/well. To compensate a reduction in the concentration of the preparations, which takes place in the following addition of viruses, twofold concentrations of compounds (i.e. 200, 20 and 2 or 20, 2 and 0.2 μM for […] concentrations of 100 μM preparations, respectively) were used, incubated for an hour and then were infected with the examined 0.1 ml/well viruses in doses 1, 10 and 100 TCID50 (50% tissue infectious dose).
(§14) The virus-specific cytogenic action was manifested in an increase in the size of cells, their rounding, and detachment from a substrate. These morphological characteristics served as their marked difference from the cells subjected to a toxic action of high concentrations of the examined preparations. The latter acquired spindle-like shape, lost contacts with neighboring cells of the monolayer, and their boundaries became more distinct.
(§15) Intensity of the virus-specific changes in the cells were semi-quantified using a 4-score system: 0—CPA (cytopathogenic action) is not detected; 1—up to 25% virus-infected monolayer; 2—from 25% to 50%; 3—from 50% to 75%; and 4—from 75% to 100%. The antiviral activity of a compound was evaluated according to their ability to reduce the manifestation of cytopathogenic action in the plate wells compared to the control values. Differences with the control values by 1 score and more were considered to be significant.

[11] = test system: Herpes Simplex Virus type 1 strain EC; assay: as above; set-up: key: 0: CPA (cytopathogenic action) is not detected; 1: up to 25% virus-infected monolayer; from 25% to 50%; 3: from 50% to 75%; 4: from 75% to 100%; conditions: 48 hours
Experimental: as §11, §12, §13, §14, §15

Compound | MIC [1] | MIC [2] | MIC [5] | MIC [6] | MIC [7] | MIC [8] | MIC (Escherichia coli 4300) | MIC [9] | also measured
6,7-bis-(Methyl Ester N^α—(N^G-Nitro)Arginyl)-Protohemin (IX) [III] | 25 µM | 25 µM |  |  |  |  |  |  | MIC [3]: 12.5 µM; MIC ([4]; MH medium, 20 h, 37° C., 100% growth inhibition): 1.6 µM; MBC ([4]; no colonies on agarized MH medium): 6.3 µM
6,7-bis-[(Amide N^α-L-Arginyl)-L-Seryl]-Protohemin (IX) [XXIII] | >50.0 µM | >50.0 µM | >50.0 µM | >50.0 µM | >50.0 µM | >50.0 µM | >50.0 µM | >50.0 µM | 
6,7-bis-[(Amide N^α-L-Seryl)-L-Arginyl]-Protohemin (IX) [XX] | 1.3 µM | 3.12 µM | 1.56 µM | 1.3 µM | 1.56 µM | 6.25 µM | >50.0 µM | 0.65 µM | 
6,7-bis-[(Diamide N^α-L-Seryl)-L-glutamyl]-Protohemin (IX) [XII] |  |  |  |  |  |  |  |  | manifestation of the virus CPA ([10]; HSV-2, virus dose 1, concentration 0.1 μM): 0.5 scores; manifestation of the virus CPA ([10]; HSV-2, virus dose 1, concentration 1 μM): 0.5 scores; manifestation of the virus CPA ([10]; HSV-2, virus dose 1, concentration 10 μM): 0^1; manifestation of the virus CPA ([10]; HSV-2, virus dose 10, concentration 0.1 μM): 2 (from 25% to 50%); manifestation of the virus CPA ([10]; HSV-2, virus dose 10, concentration 1 μM): 1.5 scores; manifestation of the virus CPA ([10]; HSV-2, virus dose 10, concentration 10 μM): 1^1 (up to 25% virus-infected monolayer); manifestation of the virus CPA ([10]; HSV-2, virus dose 100, concentration 0.1 μM): 3 (from 50% to 75%); manifestation of the virus CPA ([10]; HSV-2, virus dose 100, concentration 1 μM): 3 (from 50% to 75%); manifestation of the virus CPA ([10]; HSV-2, virus dose 100, concentration 10 μM): 3 (from 50% to 75%)
6,7-bis-[(Methyl Ester N^α-L-Arginyl)-L-Seryl]-Protohemin (IX) [XXI] | 1.56 µM | 0.65 µM | 1.56 µM | 0.39 µM | 0.78 µM | 6.25 µM | >50.0 µM | 0.65 µM | 
Nc1nc2c(ncn2COCCO)c(=O)[nH]1 [Acyclovir, reference compound] |  |  |  |  |  |  |  |  | manifestation of the virus CPA ([10]; HSV-2, virus dose 1, 10 μg/ml): 0^1; manifestation of the virus CPA ([10]; HSV-2, virus dose 10, 10 μg/ml): 0^1; manifestation of the virus CPA ([10]; HSV-2, virus dose 100, 10 μg/ml): 0^1; manifestation of the virus CPA ([11]; HSV-1, virus dose 1, 10 μg/ml): 0^1; manifestation of the virus CPA ([11]; HSV-1, virus dose 10, 10 μg/ml): 0^1; manifestation of the virus CPA ([11]; HSV-1, virus dose 100, 10 μg/ml): 0^1
